Patent US10202330B2, “Lysine specific demethylase-1 inhibitors and their use” (ORYZON GENOMICS S.A., priority 2010, dated 2019)
Structures can show the parent of a compound that is named as a salt. Where two headings read alike, the source gives them in different places.

Key:
[1] = target: Human recombinant LSD1 protein (Homo sapiens (Human), UniProt O60341); assay: LSD1 inhibition, Amplex Red peroxide/peroxidase-coupled assay with di-methylated H3-K4 peptide; format: biochemical
Description: The demethylase activity was estimated, under aerobic conditions, by measuring the release of H2O2 produced during the catalytic process, using the Amplex® Red peroxide/peroxidase-coupled assay kit (Invitrogen).
Within the experiment, each concentration of inhibitor was tested in triplicate. […] The enzymatic reactions were set up in a 50 mM sodium phosphate, pH 7.4 buffer. At the end of the incubation, Amplex® Red reagent and horseradish peroxidase (HPR) solution were added to the reaction according to the recommendations provided by the supplier (Invitrogen), and left to incubate for 30 extra minutes at room temperature in the dark. A 1 μM H2O2 solution was used as a control of the kit efficiency. The conversion of the Amplex® Red reagent to resorufin due to the presence of H2O2 in the assay, was monitored by fluorescence (excitation at 540 nm, emission at 590 nm) using a microplate reader (Infinite 200, Tecan). Arbitrary units were used to measure level of H2O2 produced in the absence and/or in the presence of inhibitor.
The Ki (IC50) of each inhibitor was estimated at half of the maximum activity.

[2] = target: Human recombinant monoamine oxidase MAO-A (Homo sapiens (Human), UniProt P21397); assay: Monoamine oxidase assay, kynuramine to 4-hydroxyquinoline fluorescence; format: biochemical; conditions: Ki (IC50) at Vmax/2; two ranges listed = near the boundary
Excerpt: (§1) In order to monitor MAO enzymatic activities and/or their inhibition rate by inhibitor(s) of interest, a fluorescent-based (inhibitor)-screening assay was set up. 3-(2-Aminophenyl)-3-oxopropanamine (kynuramine dihydrobromide, Sigma Aldrich), a non fluorescent compound was chosen as a substrate. Kynuramine is a non-specific substrate for both MAOs activities. While undergoing oxidative deamination by MAO activities, kynuramine is converted into 4-hydroxyquinoline (4-HQ), a resulting fluorescent product.
(§2) The monoamine oxidase activity was estimated by measuring the conversion of kynuramine into 4-hydroxyquinoline. Assays were conducted in 96-well black plates with clear bottom (Corning) in a final volume of 100 μL. The assay buffer was 100 mM HEPES, pH 7.5. Each experiment was performed in triplicate within the same experiment.
(§3) The oxidative deamination of the substrate was stopped by adding 50 μL (v/v) of NaOH 2N. […] Arbitrary units were used to measure levels of fluorescence produced in the absence and/or in the presence of inhibitor.
(§4) The Ki (IC50) of each inhibitor was determined at Vmax/2.

[3] = target: Human recombinant monoamine oxidase MAO-B (Homo sapiens (Human), UniProt P27338); assay: as above; format: biochemical; conditions: Ki (IC50) at Vmax/2; two ranges listed = near the boundary
Excerpt: as §1, §2, §3, §4

[4] = test system: human colon cancer cell line HCT116; assay: Cancer cell line study, alamarBlue viability assay; format: cell-based; conditions: HCT-116, read-out: EC50 (dose required to inhibit cell growth by 50%), HCT116, 72 hours
Description: The HCT116 cell line was maintained in DMEM GlutaMAX (Invitrogen) supplemented with 10% fetal calf serum.
Cells were grown in a humidified incubator at 37° C. in 5% CO2.
Cells were plated in 96-well plates at a density of 6000 cells/well in 100 μl medium 24 h before addition of drugs. […] To do so, a drugs-dilution plate at twice the screening concentrations was prepared. 72 hours later, alamarBlue (Biosource, Invitrogen) viability assay was performed following manufacturer's protocol. In brief, alamarBlue diluted in media was added to cells to have a 5% solution. Cells were incubated at 37° C., 3 hours and at room temperature, 30 min. Cells with no drug and, cells with no drug and lysed with triton X-100 were used as controls. Fluorescence was monitored at 530 nm excitation and 590 nm emission wavelengths. Results were quantified using Infinite F200 Microplate Reader (Tecan Group, Ltd.).

[5] = Ki (IC50) at half of the maximum activity, two ranges listed = near the boundary, read-out: LSD1 (Ki)

Row | SMILES | Ki [1, 5] | Ki [2] | Ki [3] | LSD1 (Ki) ([1]; Ki (IC50) at half of the maximum activity, two ranges listed = near the boundary) | EC50 [4] | Ki [1] | MAO-B (Ki) [3]
1 | COc1ccc2c(c1)C(N[C@H]1CC1c1ccccc1)CCC2 (stereo in doubt) [Example 8, 7-methoxy-N-((trans)-2-phenylcyclopropyl)-1,2,3,4-tetrahydronaphthalen-1-amine] | 100 to 1000 nM | 1000 to 40000 nM | 1000 to 40000 nM |  |  |  | 
2 | COc1ccc2c(c1)C(N[C@H]1CC1c1ccc(OCc3cccc(Br)c3)cc1)CC2 (stereo in doubt) [Example 16, N-((trans)-2-(4-(3-bromobenzyloxyl)phenyl)cyclopropyl)-6-methoxy-2,3-dihydro-1H-inden-1-amine hydrochloride] | 100 to 1000 nM | 1000 to 40000 nM | 1000 to 40000 nM |  |  |  | 
3 | COc1ccc2c(c1OC)CCC2N[C@H]1CC1c1ccc(OCc2ccccc2)cc1.Cl (stereo in doubt) [Example 3, N-((trans)-2-(4-(benzyloxy)phenyl)cyclopropyl)-4,5-dimethoxy-2,3-dihydro-1H-inden-1-amine hydrochloride] |  | 1000 to 40000 nM | 1000 to 40000 nM | II, III | ~37000 nM |  | 
4 | Clc1ccc2c(c1)C(N[C@H]1CC1c1ccccc1)CC2 (stereo in doubt) [Example 6, 6-chloro-N-((trans)-2-phenylcyclopropyl)-2,3-dihydro-1H-inden-1-amine hydrochloride] | 100 to 1000 nM | 1000 to 40000 nM | 1000 to 40000 nM |  |  |  | 
5 | c1ccc([C@H]2C[C@@H]2NCCC2CCCCCC2)cc1 (relative stereo) [Example 14, (Trans)-N-(2-cycloheptylethyl)-2-phenylcyclopropanamine hydrochloride] | 100 to 1000 nM | 1000 to 40000 nM | 1000 to 40000 nM |  |  |  | 
6 | Brc1cccc(COc2ccc([C@H]3C[C@@H]3NCCC3CCCCC3)cc2)c1 (relative stereo) [Example 15, (Trans)-2-(4-(3-bromobenzyloxyl)phenyl)-N-(2-cyclohexylethyl)cyclopropanamine hydrochloride] |  | 1000 to 40000 nM | 100 to 1000 nM |  | ~13300 nM | 100 to 1000 nM | 
7 | COc1cccc(-c2ccc(C3C[C@@H]3NC3CCc4ccc(OC)cc43)cc2)c1 (stereo in doubt) [Example 11, 6-methoxy-N-((trans)-2-(3′-methoxybiphenyl-4-yl)cyclopropyl)-2,3-dihydro-1H-inden-1-amine hydrochloride] |  | 1000 to 40000 nM |  |  |  |  | 
8 | COc1ccc2c(c1)C(N[C@H]1CC1c1ccccc1)CC2 (stereo in doubt) [Example 5, 6-methoxy-N-((trans)-2-phenylcyclopropyl)-2,3-dihydro-1H-inden-1-amine] |  | 1000 to 40000 nM |  |  |  |  | 
9 | COc1ccc2c(c1)C(N[C@H]1CC1c1ccc(OCc3ccccc3)cc1)CC2.Cl (stereo in doubt) [Example 1, N-((trans)-2-(4-(benzyloxy)phenyl)cyclopropyl)-6-methoxy-2,3-dihydro-1H-inden-1-amine hydrochloride] |  | 1000 to 40000 nM |  |  |  |  | II, III
10 | c1ccc([C@H]2C[C@@H]2NCCCC2CCCCC2)cc1 (relative stereo) [Example 13, (Trans)-N-(3-cyclohexylpropyl)-2-phenylcyclopropanamine hydrochloride] | 100 to 1000 nM | 1000 to 40000 nM | 1000 to 40000 nM |  |  |  | 
11 | COc1ccc2c(c1)C(N[C@@H]1C[C@H]1c1ccc(OCc3ccccc3)cc1)CCC2 (relative stereo) [Example 20, N-((trans)-2-(4-(benzyloxy)phenyl)cyclopropyl)-7-methoxy-1,2,3,4-tetrahydronaphthalen-1-amine] | 100 to 1000 nM | 1000 to 40000 nM | 1000 to 40000 nM |  |  |  | 
12 | c1ccc(C2C[C@@H]2NC2CCc3ccccc32)cc1 (stereo in doubt) [Example 4, N-((trans)-2-phenylcyclopropyl)-2,3-dihydro-1H-inden-1-amine hydrochloride] |  | 1000 to 40000 nM |  |  |  |  | 
